Data: BindingDB's records for patent US9139585 (Merck Sharp & Dohme, 2015)

Target: T1, ATP-sensitive inward rectifier potassium channel 1 (Homo sapiens, UniProt P48048)
T1 sequence (P48048 whole entry): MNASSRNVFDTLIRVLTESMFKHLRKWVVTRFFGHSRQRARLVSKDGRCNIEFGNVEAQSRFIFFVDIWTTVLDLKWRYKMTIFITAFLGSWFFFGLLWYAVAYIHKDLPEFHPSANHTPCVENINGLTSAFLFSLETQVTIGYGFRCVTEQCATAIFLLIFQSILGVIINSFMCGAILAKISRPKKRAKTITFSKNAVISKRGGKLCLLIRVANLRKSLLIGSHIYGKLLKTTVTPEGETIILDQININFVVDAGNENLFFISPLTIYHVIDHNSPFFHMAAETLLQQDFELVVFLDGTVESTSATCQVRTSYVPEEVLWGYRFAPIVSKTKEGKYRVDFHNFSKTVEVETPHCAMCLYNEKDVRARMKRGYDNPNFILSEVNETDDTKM
Test: Electrophysiology Assay
Settings: pH 7.4; 37 °C
Protocol: Chinese hamster ovary cells stably expressing Kir1.1 channels were maintained in T-75 flasks in cell culture media in a humidified 10% CO2 incubator at 37 °C. Prior to an experiment, Kir1.1 expression was induced by overnight incubation with 1 mM sodium butyrate. […] After centrifugation, the cell pellet was resuspended in approximately 4.0 ml of bath solution and placed in the IonWorks instrument. The intracellular solution consisted of (in mM): 80 K gluconate, 40 KCl, 20 KF, 3.2 MgCl2, 3 EGTA, 5 Hepes, pH 7.

IC50: 95 nM
SMILES: Cc1c([C@@H](O)CN2CCN(C[C@H](O)c3ccc4c(c3)CCS4(=O)=O)CC2)ccc2c1COC2=O [US9139585, 43B]
